Source: PubChem BioAssay AID2305 (GlaxoSmithKline (GSK), 2010)
pIC50: −log10 of the molar value.

test system: P. falciparum 3D7 growth, pLDH absorbance; experiment: blood-stage malaria parasite growth potency – strain 3D7, dose response (AID 2305)

Row | SMILES | pIC50
1 | Cc1cccc2[nH]c(-c3cccc(-c4ccc(NC(=O)C(=O)c5cccn5C)cc4)c3)nc12 | 6.42
2 | O=C(COc1ccccc1Cl)N1CCc2cc3nccc(N4CCN5CCC[C@H]5C4)c3cc21 | 6.13
3 | Cc1ccc(Nc2ccnc(Nc3ccc(F)c(Cl)c3)n2)cc1O | 6.14
4 | COc1ccc(C(O)CNC(C)CCc2ccc(F)cc2)cc1C(F)(F)F (stereo unspecified) | 6.12
5 | N=C(N)c1ccc(OCc2cccc(COc3ccc(C(=N)N)cc3I)c2)c(I)c1 | 6.47
6 | CCC(C)NS(=O)(=O)c1ccc2nc(Nc3ccc(C)c(Cl)c3)n(C(C)C(C)C)c2c1 (stereo unspecified) | 6.42
7 | Fc1cc(Cl)ccc1Nc1ccnc2cc(-c3ccc(CN4CCOCC4)o3)ccc12 | 6.19
8 | Cc1nc(-c2nc(NCCc3ccncc3)ncc2-c2ccsc2)sc1C | 6.52
9 | Cc1ccccc1C(O)CNc1ccnc(Nc2cccc(C#N)c2)n1 (stereo unspecified) | 6.06
10 | COc1cccc(-c2ccc(O)c(CNCCc3cccc(F)c3)c2)n1 | 6.04
11 | N#Cc1c(N2CCCCCC2)nc(N)c2c(N)nc3c(c12)CC(=O)N3c1ccc(F)cc1 | 6.68
12 | CCOC(=O)C1=C(C)NC2=C(C(=O)CC(C)(C)C2)C1c1ccc(Br)cc1 (stereo unspecified) | 5.94
13 | CCCCNC(c1ccc(Cl)cc1)C(O)c1ccc(Cl)cc1 (stereo unspecified) | 6.21
14 | COc1cc(-c2ccc3c(-c4ccc(C(=O)N5CCN(C)CC5)cc4)[nH]nc3n2)cc(OC)c1OC | 5.88
15 | COC(=O)c1ccc(NC(=O)Nc2ccc(Cn3ncc(N4CCCNCC4)c(Cl)c3=O)cc2)cc1 | 6.22
16 | O=C(Nc1ccc(S(=O)(=O)NCCCN2CCOCC2)cc1)c1cc(-c2ccccc2)n[nH]1 | 6.11
17 | COc1c(Br)cc(Br)cc1C(C)=O | 6.00
18 | Nc1c(Cl)cc(C(O)CNCCCCCOCCc2ccccc2)cc1C(F)(F)F (stereo unspecified) | 6.01
19 | Cc1cccc(CN2CCCN(Cc3cccc(C(=O)Nc4ccc(C(C)(C)C)cc4)c3)CC2)c1 | 6.03
20 | COc1ccc2c(NN=Cc3ccccn3)ccnc2c1 | 6.43
21 | O=C(NC(c1ccccc1)c1ccccc1)C(c1cc2ccccc2o1)N1CCN(C(c2ccccc2)c2ccccc2)CC1 (stereo unspecified) | 6.17
22 | CC(=O)N[C@@H]1c2cc(C(C)=O)ccc2OC(C)(C)[C@@H]1O | 6.01
23 | CS(=O)(=O)Nc1cccc(-c2cnc3[nH]cc(-c4ccc(C(=O)O)cc4)c3c2)c1 | 6.07
24 | COc1ccc2c(NN=Cc3c(OC)ccc4ccccc34)cc(C)nc2c1 | 6.11
25 | Fc1cccc(C=NNc2ccnc3ccccc23)c1 | 6.08
26 | CCc1cn2c3c(cc(C(=O)N[C@@H](Cc4cc(F)cc(F)c4)[C@H](O)CNC4CCCCC4)cc13)N(C)S(=O)(=O)CC2 | 7.52

Row | SMILES | pIC50
27 | O=[N+]([O-])c1cc(C=NNc2nc3nonc3nc2Nc2ccc(F)cc2)c(Cl)cc1Cl | 6.12
28 | COc1ccc2nccc([C@@H](O)CN3CCC(NCCc4c[nH]c5ccccc45)CC3)c2c1 | 6.68
29 | CCCNc1nc(NCc2c(C)cccc2C)nc(NC(C)(C)C)n1 | 6.07
30 | Oc1ccc(CN2CCC(NCc3cccc4ccccc34)CC2)cc1 | 5.92
31 | C(=Cc1nc2ccccc2s1)c1ccc2c(c1)OCCO2 | 6.41
32 | O=C(Nc1ccc(Cl)cc1)Nc1cccc(-c2cc(CNCCc3ccccc3)oc2-c2ccncc2)c1 | 6.55
33 | CCn1c(CN2CCN(Cc3ccccc3)CC2)nc2cc(NC(=O)c3cccs3)ccc21 | 6.40
34 | Nc1c(Cl)cc(C(O)CNCCCCCOCCCc2ccc3ncccc3c2)cc1Cl (stereo unspecified) | 6.01
35 | Cn1nccc1C(=O)NCCNCc1ccc(-c2ccc(-c3nc4ccc(F)cc4[nH]3)cc2)cc1 | 6.52
36 | Cc1cc(CNCC2CCC(CNCCCc3ccccc3)CC2)ccc1O (stereo unspecified) | 6.06
37 | O=C(NCc1ccc(Cl)c(Cl)c1)c1cc(CNC2CCNCC2)ccc1O | 6.07
38 | COc1cccc(NC(=O)Nc2ccc(Nc3nc(C)cc(N4CCCC4)n3)cc2)c1 | 6.70
39 | CC(ON1C(N)=NC(N)=NC1(C)C)c1ccccc1 (stereo unspecified) | 8.00
40 | CNc1ccc(CNCc2ccc(-c3ccc(-c4nc5c(C)cccc5[nH]4)s3)cc2)cc1 | 6.18
41 | CN(C)CCOc1ccc(N2CCN(CCCCNC(=O)c3ccc(NC(=O)c4ccc(Cl)cc4)cc3)CC2)cc1 | 6.08
42 | COc1cc(C2Nc3ccc4ccccc4c3C3=C2C(=O)CC(C)(C)C3)ccc1Oc1ccc([N+](=O)[O-])cc1C#N (stereo unspecified) | 6.18
43 | Cc1cc(N[C@@H](Cc2ccccc2)C(=O)NCc2cccs2)nc(NCCOc2ccccc2)n1 | 5.83
44 | Cc1cccc2[nH]c(-c3ccc(-c4cccc(NC(=O)C(C)CN5CCN(C)CC5)c4)s3)nc12 (stereo unspecified) | 6.12
45 | O=c1[nH]c(NCCCCCN2CCC(c3c[nH]c4ccccc34)CC2)ncc1Cc1ccc(Cl)c(Cl)c1 | 6.01
46 | O=S(=O)(NCCN1CCCC1)c1ccc(-c2ccc(CNCc3ccsc3)cc2)s1 | 6.08
47 | CC(C)c1ccc(NC(=O)NCC2CCCN(CCCCCNC(=O)/C=C/c3ccc(Cl)c(Cl)c3)C2)cc1 (stereo unspecified) | 6.09
48 | COc1ccccc1C1CCN(CCN2CCC(NC(=O)c3ccc(-c4ccc(C#N)cc4)cc3)CC2)CC1 | 6.10
49 | Cc1cc(NC(=O)c2cc(Br)ccc2Cl)n(-c2nc(C)c(C)c(=O)[nH]2)n1 | 5.95
50 | CCCCCn1c(Sc2ccc(C#N)c([N+](=O)[O-])c2)nnc1-c1ccc(Cl)cc1 | 5.97
51 | O=C(NC1CCN(Cc2ccccc2O)C1)c1ccc(-c2ccccc2)cc1 (stereo unspecified) | 6.08
52 | CS(=O)(=O)c1ccc2nc(NC(=O)c3csnn3)sc2c1 | 6.17

Row | SMILES | pIC50
53 | COc1ccc(CCNCC(O)COc2nccc3c(S(=O)(=O)N4CCCNCC4)cccc23)cc1OC (stereo unspecified) | 6.57
54 | O=C(CCc1cnc[nH]1)Nc1cccc(-c2ccc(-c3nc4ccccc4[nH]3)cc2)c1 | 6.19
55 | COc1cccc2c(NN=Cc3ccc([N+](=O)[O-])cc3)ccnc12 | 6.05
56 | Cc1cc(=O)c(-c2ccc(OCc3ccc(Cl)cc3)cc2)c(C)[nH]1 | 6.14
57 | NCC1CCCN1Cc1cccc(-c2ccc(-c3nc4ccccc4[nH]3)s2)c1 (stereo unspecified) | 5.98
58 | CCn1c(-c2nonc2N)nc2c(-c3ccc(CO)o3)ncc(OCCCN)c21 | 5.87
59 | COc1cccc(NC(=O)Nc2cc(C)nc3ccccc23)c1 | 6.14
60 | Fc1ccccc1COc1ccc(Nc2ncnc3ccc(I)cc23)cc1Cl | 6.03
61 | CCNc1cc(C)nc(Nc2ccc(NC(=O)c3ccccc3Cl)cc2)n1 | 6.00
62 | CCn1c(-c2nonc2N)nc2c(-c3cccc(NC(=O)Nc4cccc(OC)c4)c3)ncc(OCCCN)c21 | 6.11
63 | CCCCN1CC[C@@H](CCC(O)c2cc(OCCC)nc3ccc(OC)cc23)[C@@H](CC)C1 (stereo partly specified) | 6.44
64 | O=C(NCCc1ccccc1)[C@H](Cc1ccccc1)Nc1ccnc(NCC2CCCCC2)n1 | 5.86
65 | Cn1nc(C(F)(F)F)cc1-c1ccc(C(=O)NC2CCC(CN3CCC(c4c[nH]c5ccccc45)CC3)CC2)s1 (stereo unspecified) | 6.25
66 | Cc1ccc(NC(=O)C2CCC2)cc1-c1ccc(C(=O)NCC2CC2)cc1 | 6.13
67 | O=C(Nc1ccc(-c2cccc(-c3nc4ccc(C(F)(F)F)cc4[nH]3)c2)cc1)c1ccoc1 | 6.08
68 | Cc1cc(CN2CCN(CCOC(c3ccccc3)c3ccccc3)CC2)ccc1O | 6.03
69 | COc1cc2c(cc1C(F)(F)F)N(C(=O)Nc1cc(Br)cc(-c3cccnc3)c1)CC2 | 6.07
70 | O=C(Nc1ccc(-c2ccc(-c3nc4ccc(C(F)(F)F)cc4[nH]3)cc2)cc1)Nc1ccc(F)c(F)c1F | 6.66
71 | COc1ccc2nc3cc(Cl)ccc3c(NCCCCNc3c4ccc(Cl)cc4nc4ccc(OC)cc34)c2c1 | 6.80
72 | CC(O)C1CCCCN1C(=O)c1ccc(-c2cccc(-c3nc4ccc(F)cc4[nH]3)c2)cc1 (stereo unspecified) | 6.27
73 | COc1ccccc1CCNc1nc(C)cc(N[C@@H](Cc2ccccc2)C(=O)NCc2cccs2)n1 | 6.20
74 | Nc1cc(-c2ccc(-c3cccs3)s2)nc2ccccc12 | 6.22
75 | CC(NC(=O)c1ccc(O)c(-c2ccc(Cl)c(Cl)c2)c1)C(=O)NC1CCCCC1 (stereo unspecified) | 6.08
76 | COc1cccc2cc(C(=O)N[C@@H](CC(C)C)C(=O)N[C@H](/C=N/N3CC(=O)NC3=O)CC(C)C)oc12 | 6.04
77 | Cc1cc(OCCCN2CCCCC2)ccc1NC(=O)COc1ccc(Cl)cc1C(=O)c1cc(Cl)cc(C#N)c1 | 6.05
78 | c1cncc(NCc2ccc(-c3cc4ccncc4cc3OC3CCNCC3)s2)c1 | 6.01

Row | SMILES | pIC50
79 | COc1ccc2c(NN=Cc3ccc(OC)c4ccccc34)cc(C)nc2c1 | 6.22
80 | O=C(NCc1ccccc1S(=O)c1ccccc1CO)C(F)(F)F (stereo unspecified) | 6.74
81 | Cc1ccc(NCc2cccc(F)c2)cc1S(=O)(=O)N[C@@H]1CCN(C#N)C1 | 6.10
82 | O=C(Cc1cc(=O)oc2cc(O)ccc12)N1CCC(CN2CCC(c3c[nH]c4ccccc34)CC2)CC1 | 6.06
83 | COc1cc(NC(=O)c2cccc([N+](=O)[O-])c2)cc(S(=O)(=O)c2ccc(Cl)cc2)c1 | 5.95
84 | Oc1ccc(Nc2ccnc3cc(Cl)ccc23)cc1 | 6.13
85 | COc1ccc2c(NN=Cc3cccc([N+](=O)[O-])c3)cc(C)nc2c1 | 6.25
86 | Oc1cccc2ccc(Nc3ccccn3)nc12 | 6.12
87 | CN(C)CCn1c(=N)n(CC(O)c2ccc(Cl)c(Cl)c2)c2ccccc21 (stereo unspecified) | 6.10
88 | COc1ccccc1CNC(=O)c1cc(OC)c(OC)cc1NC(=O)c1cccs1 | 5.84
89 | COc1ccnc(NCCCNCc2cn(S(=O)(=O)c3ccccc3)c3ccccc23)c1 | 6.10
90 | NC1CCN(Cc2ccc(-c3ccc(-c4nc5ccc(F)cc5[nH]4)s3)cc2)C1 (stereo unspecified) | 6.19
91 | CCC1CN2CCc3c([nH]c4ccc(OC)cc34)[C@@H]2C[C@@H]1CC1NCCc2cc(OC)c(OC)cc21 (stereo partly specified) | 6.07
92 | Nc1ccc(-c2csc(Nc3ccncc3)n2)cc1 | 6.03
93 | COc1ccc(CNC(=O)c2cnc3c(O)cccc3c2Nc2cccc(NC(=O)c3ccc(F)cc3)c2)cc1 | 6.00
94 | Cc1cccc2[nH]c(-c3ccc(-c4ccc(CNCCN5CCNCC5)cc4)s3)nc12 | 5.94
95 | Cc1ccc(C(=O)N2CCc3cc4nccc(N5CCN6CCC[C@H]6C5)c4cc32)cc1 | 5.96
96 | COc1cc(OC)c(NC(=O)Nc2ccnc3ccccc23)cc1Cl | 6.12
97 | C=C[C@H]1CN2CC[C@H]1C[C@@H]2[C@@H](O)c1ccnc2ccccc12 | 6.11
98 | CCCCCN1CCC(NS(=O)(=O)c2ccc(C(=O)Nc3cccc(C(F)(F)F)c3)cc2)C1 (stereo unspecified) | 6.00
99 | CCn1c2ccccc2c2cc(Cc3cnc(N)nc3N)ccc21 | 6.66
100 | CC1(C)N=C(NC(=O)c2ccc([N+](=O)[O-])cc2)N=C(N)N1OCc1ccc2ccccc2c1 | 8.00
101 | CC(=O)c1cccc(NC(=O)N2CCCN(CCCCCNC(=O)/C=C/c3ccc(Cl)c(Cl)c3)CC2)c1 | 6.00
